{
  "source": "PubChem BioAssay AID1745844",
  "about": "(Carcinogenic Potency Database (CPDB), 2022)",
  "test_system": "rodent lifetime carcinogenesis bioassay, tumor incidence TD50",
  "assay": "chronic cancer bioassays in animals – CPDB, compiled studies (AID 1745844)",
  "note": "Activity calls are given as the source filed them. How the calls were made is not given here.",
  "data": [
    {"molecule": "ClC=CCCl", "values": [
      {"measurement": "TD50", "setting": "mouse, strain B6C3F1, females, by gavage, site: any site (literature study), lesion: several types, types named in the paper, dosed 104 weeks, study length 106 weeks", "value": 34.9, "unit": "mg/kg/day"},
      {"measurement": "TD50", "setting": "mouse, strain B6C3F1, females, by gavage, site: liver, lesion: hepatocellular adenoma + hepatocellular carcinoma + neoplastic nodule, dosed 104 weeks, study length 106 weeks", "value": 89.3, "unit": "mg/kg/day"},
      {"measurement": "TD50", "setting": "mouse, strain B6C3F1, females, by gavage, site: liver, lesion: hepatocellular adenoma + hepatocellular carcinoma, dosed 104 weeks, study length 106 weeks", "value": 89.3, "unit": "mg/kg/day"},
      {"measurement": "TD50", "setting": "mouse, strain B6C3F1, females, by gavage, site: liver, lesion: hepatocellular adenoma, dosed 104 weeks, study length 106 weeks", "value": 215, "unit": "mg/kg/day"},
      {"measurement": "TD50", "setting": "mouse, strain B6C3F1, females, by gavage, site: lung + stomach + urinary bladder, lesion: alveolar/bronchiolar adenoma + squamous-cell carcinoma + squamous-cell papilloma + transitional-cell carcinoma, dosed 104 weeks, study length 106 weeks", "value": 36.3, "unit": "mg/kg/day"},
      {"measurement": "TD50", "setting": "mouse, strain B6C3F1, females, by gavage, site: lung, lesion: alveolar/bronchiolar adenoma + alveolar/bronchiolar carcinoma, dosed 104 weeks, study length 106 weeks", "value": 182, "unit": "mg/kg/day"},
      {"measurement": "TD50", "setting": "mouse, strain B6C3F1, females, by gavage, site: lung, lesion: alveolar/bronchiolar adenoma, dosed 104 weeks, study length 106 weeks", "value": 149, "unit": "mg/kg/day"},
      {"measurement": "TD50", "setting": "mouse, strain B6C3F1, females, by gavage, site: stomach, lesion: squamous-cell carcinoma + squamous-cell papilloma, dosed 104 weeks, study length 106 weeks", "value": 344, "unit": "mg/kg/day"},
      {"measurement": "TD50", "setting": "mouse, strain B6C3F1, females, by gavage, site: urinary bladder, lesion: transitional-cell carcinoma, dosed 104 weeks, study length 106 weeks", "value": 49.6, "unit": "mg/kg/day"},
      {"measurement": "carcinogen call", "setting": "mouse, strain B6C3F1, females, in feed, site: liver, lesion: hepatocellular adenoma, dosed 104 weeks, study length 104 weeks", "value": "negative (inactive)"},
      {"measurement": "carcinogen call", "setting": "mouse, strain B6C3F1, females, in feed, site: liver, lesion: hepatocellular carcinoma, dosed 104 weeks, study length 104 weeks", "value": "negative (inactive)"},
      {"measurement": "carcinogen call", "setting": "mouse, strain B6C3F1, females, in feed, site: lung, lesion: alveolar/bronchiolar adenoma, dosed 104 weeks, study length 104 weeks", "value": "negative (inactive)"},
      {"measurement": "carcinogen call", "setting": "mouse, strain B6C3F1, females, in feed, site: lung, lesion: alveolar/bronchiolar carcinoma, dosed 104 weeks, study length 104 weeks", "value": "negative (inactive)"},
      {"measurement": "carcinogen call", "setting": "mouse, strain B6C3F1, females, in feed, site: stomach, lesion: one or several types, types not named, dosed 52 weeks, study length 52 weeks", "value": "negative (inactive)"},
      {"measurement": "carcinogen call", "setting": "mouse, strain B6C3F1, females, inhaled, site: any site (literature study), lesion: several types, types named in the paper, dosed 104 weeks, study length 104 weeks", "value": "negative (inactive)"},
      {"measurement": "TD50", "setting": "mouse, strain B6C3F1, females, inhaled, site: liver, lesion: several types, types named in the paper, dosed 104 weeks, study length 104 weeks", "value": "1810 mg/kg/day (inactive)"},
      {"measurement": "carcinogen call", "setting": "mouse, strain B6C3F1, females, inhaled, site: lung, lesion: alveolar/bronchiolar adenoma, dosed 104 weeks, study length 104 weeks", "value": "negative (inactive)"},
      {"measurement": "carcinogen call", "setting": "mouse, strain B6C3F1, females, inhaled, site: lung, lesion: one or several types, types not named, dosed 52 weeks, study length 52 weeks", "value": "negative (inactive)"},
      {"measurement": "carcinogen call", "setting": "mouse, strain B6C3F1, females, inhaled, site: mesenteric lymph node, lesion: lymphosarcoma, dosed 104 weeks, study length 104 weeks", "value": "negative (inactive)"},
      {"measurement": "TD50", "setting": "mouse, strain B6C3F1, females, inhaled, site: pituitary gland, lesion: adenoma, dosed 104 weeks, study length 104 weeks", "value": "19 mg/kg/day (inactive)"},
      {"measurement": "TD50", "setting": "mouse, strain B6C3F1, males, by gavage, site: any site (literature study), lesion: several types, types named in the paper, dosed 104 weeks, study length 105 weeks", "value": 309, "unit": "mg/kg/day"},
      {"measurement": "TD50", "setting": "mouse, strain B6C3F1, males, by gavage, site: liver, lesion: hepatocellular adenoma + hepatocellular carcinoma + neoplastic nodule, dosed 104 weeks, study length 105 weeks", "value": 1930, "unit": "mg/kg/day"},
      {"measurement": "TD50", "setting": "mouse, strain B6C3F1, males, by gavage, site: lung, lesion: alveolar/bronchiolar adenoma + alveolar/bronchiolar carcinoma, dosed 104 weeks, study length 105 weeks", "value": 127, "unit": "mg/kg/day"},
      {"measurement": "TD50", "setting": "mouse, strain B6C3F1, males, in feed, site: liver, lesion: hepatocellular adenoma, dosed 104 weeks, study length 104 weeks", "value": "78.2 mg/kg/day (inactive)"},
      {"measurement": "carcinogen call", "setting": "mouse, strain B6C3F1, males, in feed, site: liver, lesion: hepatocellular carcinoma, dosed 104 weeks, study length 104 weeks", "value": "negative (inactive)"},
      {"measurement": "TD50", "setting": "mouse, strain B6C3F1, males, in feed, site: lung, lesion: alveolar/bronchiolar adenoma, dosed 104 weeks, study length 104 weeks", "value": "368 mg/kg/day (inactive)"},
      {"measurement": "carcinogen call", "setting": "mouse, strain B6C3F1, males, in feed, site: lung, lesion: alveolar/bronchiolar carcinoma, dosed 104 weeks, study length 104 weeks", "value": "negative (inactive)"},
      {"measurement": "carcinogen call", "setting": "mouse, strain B6C3F1, males, in feed, site: stomach, lesion: one or several types, types not named, dosed 52 weeks, study length 52 weeks", "value": "negative (inactive)"},
      {"measurement": "TD50", "setting": "mouse, strain B6C3F1, males, inhaled, site: any site (literature study), lesion: several types, types named in the paper, dosed 104 weeks, study length 104 weeks", "value": 229, "unit": "mg/kg/day"},
      {"measurement": "TD50", "setting": "mouse, strain B6C3F1, males, inhaled, site: lacrimal gland, lesion: cystadenoma, dosed 104 weeks, study length 104 weeks", "value": 82.2, "unit": "mg/kg/day"},
      {"measurement": "TD50", "setting": "mouse, strain B6C3F1, males, inhaled, site: lung, lesion: alveolar/bronchiolar adenoma, dosed 104 weeks, study length 104 weeks", "value": 118, "unit": "mg/kg/day"},
      {"measurement": "carcinogen call", "setting": "mouse, strain B6C3F1, males, inhaled, site: lung, lesion: one or several types, types not named, dosed 52 weeks, study length 52 weeks", "value": "negative (inactive)"},
      {"measurement": "TD50", "setting": "rat, strain Fischer 344, females, by gavage, site: liver, lesion: hepatocellular adenoma + hepatocellular carcinoma + neoplastic nodule, dosed 104 weeks, study length 106 weeks", "value": 168, "unit": "mg/kg/day"},
      {"measurement": "TD50", "setting": "rat, strain Fischer 344, females, by gavage, site: stomach, lesion: squamous-cell papilloma, dosed 104 weeks, study length 106 weeks", "value": 176, "unit": "mg/kg/day"},
      {"measurement": "TD50", "setting": "rat, strain Fischer 344, females, by gavage, site: thyroid gland, lesion: follicular-cell adenoma + follicular-cell carcinoma, dosed 104 weeks, study length 106 weeks", "value": 137, "unit": "mg/kg/day"},
      {"measurement": "TD50", "setting": "rat, strain Fischer 344, females, in feed, site: liver, lesion: hepatocellular adenoma, dosed 104 weeks, study length 104 weeks", "value": 334, "unit": "mg/kg/day"},
      {"measurement": "carcinogen call", "setting": "rat, strain Fischer 344, females, in feed, site: stomach, lesion: one or several types, types not named, dosed 52 weeks, study length 52 weeks", "value": "negative (inactive)"},
      {"measurement": "TD50", "setting": "rat, strain Fischer 344, females, in feed, site: uterus, lesion: endometrial stromal polyp, dosed 104 weeks, study length 104 weeks", "value": 61.4, "unit": "mg/kg/day"},
      {"measurement": "carcinogen call", "setting": "rat, strain Fischer 344, females, inhaled, site: any site (literature study), lesion: one or several types, types not named, dosed 52 weeks, study length 52 weeks", "value": "negative (inactive)"},
      {"measurement": "carcinogen call", "setting": "rat, strain Fischer 344, females, inhaled, site: any site (literature study), lesion: several types, types named in the paper, dosed 105 weeks, study length 105 weeks", "value": "negative (inactive)"},
      {"measurement": "TD50", "setting": "rat, strain Fischer 344, females, inhaled, site: liver, lesion: hepatocellular adenoma, dosed 105 weeks, study length 105 weeks", "value": "1590 mg/kg/day (inactive)"},
      {"measurement": "TD50", "setting": "rat, strain Fischer 344, males, by gavage, site: forestomach + liver + stomach, lesion: squamous-cell papilloma + neoplastic nodule + squamous-cell carcinoma, dosed 104 weeks, study length 106 weeks", "value": 33.2, "unit": "mg/kg/day"},
      {"measurement": "TD50", "setting": "rat, strain Fischer 344, males, by gavage, site: forestomach + stomach, lesion: squamous-cell papilloma + squamous-cell carcinoma, dosed 104 weeks, study length 106 weeks", "value": 64.1, "unit": "mg/kg/day"},
      {"measurement": "TD50", "setting": "rat, strain Fischer 344, males, by gavage, site: forestomach + stomach, lesion: squamous-cell papilloma, dosed 104 weeks, study length 106 weeks", "value": 97, "unit": "mg/kg/day"},
      {"measurement": "TD50", "setting": "rat, strain Fischer 344, males, by gavage, site: liver, lesion: hepatocellular adenoma + hepatocellular carcinoma + neoplastic nodule, dosed 104 weeks, study length 106 weeks", "value": 68, "unit": "mg/kg/day"},
      {"measurement": "TD50", "setting": "rat, strain Fischer 344, males, by gavage, site: liver, lesion: hepatocellular carcinoma + neoplastic nodule, dosed 104 weeks, study length 106 weeks", "value": 68, "unit": "mg/kg/day"},
      {"measurement": "TD50", "setting": "rat, strain Fischer 344, males, by gavage, site: liver, lesion: neoplastic nodule, dosed 104 weeks, study length 106 weeks", "value": 76, "unit": "mg/kg/day"},
      {"measurement": "TD50", "setting": "rat, strain Fischer 344, males, by gavage, site: stomach, lesion: squamous-cell carcinoma, dosed 104 weeks, study length 106 weeks", "value": 213, "unit": "mg/kg/day"},
      {"measurement": "TD50", "setting": "rat, strain Fischer 344, males, in feed, site: liver, lesion: hepatocellular adenoma, dosed 104 weeks, study length 104 weeks", "value": 100, "unit": "mg/kg/day"},
      {"measurement": "TD50", "setting": "rat, strain Fischer 344, males, in feed, site: liver, lesion: hepatocellular carcinoma, dosed 104 weeks, study length 104 weeks", "value": 1360, "unit": "mg/kg/day"},
      {"measurement": "carcinogen call", "setting": "rat, strain Fischer 344, males, in feed, site: stomach, lesion: one or several types, types not named, dosed 52 weeks, study length 52 weeks", "value": "negative (inactive)"},
      {"measurement": "carcinogen call", "setting": "rat, strain Fischer 344, males, inhaled, site: any site (literature study), lesion: one or several types, types not named, dosed 52 weeks, study length 52 weeks", "value": "negative (inactive)"},
      {"measurement": "carcinogen call", "setting": "rat, strain Fischer 344, males, inhaled, site: any site (literature study), lesion: several types, types named in the paper, dosed 105 weeks, study length 105 weeks", "value": "negative (inactive)"},
      {"measurement": "carcinogen call", "setting": "rat, strain Fischer 344, males, inhaled, site: liver, lesion: hepatocellular adenoma, dosed 105 weeks, study length 105 weeks", "value": "negative (inactive)"}
    ]},
    {"molecule": "CC(C)COC(=O)c1ccc(O)cc1", "values": [
      {"measurement": "TD50", "setting": "mouse, strain ICR/Jcl, females, in feed, site: any site (literature study), lesion: several types, types named in the paper, dosed 102 weeks, study length 106 weeks", "value": "12300 mg/kg/day (inactive)"},
      {"measurement": "carcinogen call", "setting": "mouse, strain ICR/Jcl, females, in feed, site: liver, lesion: one or several types, types not named, dosed 102 weeks, study length 106 weeks", "value": "negative (inactive)"},
      {"measurement": "TD50", "setting": "mouse, strain ICR/Jcl, females, in feed, site: lung, lesion: one or several types, types not named, dosed 102 weeks, study length 106 weeks", "value": "37200 mg/kg/day (inactive)"},
      {"measurement": "TD50", "setting": "mouse, strain ICR/Jcl, males, in feed, site: any site (literature study), lesion: several types, types named in the paper, dosed 102 weeks, study length 104 weeks", "value": "6570 mg/kg/day (inactive)"},
      {"measurement": "TD50", "setting": "mouse, strain ICR/Jcl, males, in feed, site: liver, lesion: one or several types, types not named, dosed 102 weeks, study length 104 weeks", "value": "26300 mg/kg/day (inactive)"},
      {"measurement": "carcinogen call", "setting": "mouse, strain ICR/Jcl, males, in feed, site: lung, lesion: one or several types, types not named, dosed 102 weeks, study length 104 weeks", "value": "negative (inactive)"}
    ]}
  ]
}
